# Laboratory results as given in patent US8822519B2, “Compound with agitation effect on peroxisome proliferator-activated receptor process for its preparation and use thereof” (Zhejiang Hisun Pharmaceutical Co., Ltd., priority 2008, dated 2014).
# Assays:
# Tissue distribution = format: in vivo, SD rats; details: distribution in organs, SD rats, 10 mg/kg
# Description: 18 of SD rats were fasting for 16 h with free access for water, assigned them into 3 groups with 6 animals/group with a female-to-male ratio of 1:1; they were dosed with HS060098 (10 mg/kg), then the animals were sacrificed at 1, 10, and 24 h after dosing, and the heart, liver, spleen, lung, kidney in each animal were removed rapidly. The tainted blood on the surface of the organ was washed off immediately with physiological saline. The tissue from the organ was dissected apart, washed thoroughly, blotted off, weighed, supplemented with physiological saline at 400 mg/ml, homogenized in an ice bath for 1 min, and centrifuged at 3750 rpm for 20 min. 400 μl of the supernatant was pipetted precisely, followed by addition of 40 μl of an inner standard (HS060001 used as the inner standard with a molar concentration of 5 mmol/L), diluted with 3 ml of purified water, vortexed to homogeneity, and loaded onto a column (SPE C18 column was firstly washed with 3 ml of purified water, and sequentially with 3 ml of 10% methanol for activation). The column was rinsed with 3 ml of purified water at 1 ml/min, and then eluted with 3 ml of a elutant (methanol: purified water=9:1). The eluate was collected and blow-dried under a nitrogen flow at 45° C. The residue was dissolved in 400 μl of acetonitrile and then a HPLC insert was placed and followed by injection of the sample.
# [1] = Pharmacokinetics: plasma concentration-time curve; format: in vivo; details: SD rats, gastric lavage, 50, 10 and 2 mg/kg
# Description: The dosing volume was 10 ml/kg, and blood samples of 0.4-0.5 ml were taken from the vena orbitalis posterior of the waken animals at different time points post-gastric lavage and centrifuged at 5000 rpm for 10 min. 200 μL of plasma sample was precisely measured, then supplemented with 200 μL acetonitrile, vortexed to evenness, left stand for 5 min, and centrifuged (14000 rpm, 5 min). The supernatant was collected and then centrifuged again (14000 rpm, 5 min). The resulting supernatant was gathered and subjected to HPLC injection. Time points for blood sampling were respectively: 0, 0.5, 1, 2, 4, 6, 8, 10, 12, 24, 36, 48 and 72 h, and the peak area for each time point was the average of those obtained from 6 rats at the same time point. Plasma concentrations were calculated and the medicament concentration-time curve was plotted.
# [2] = test system: high fat fodder obese C57BL/6J mice; assay: Oral glucose tolerance test in obese mice; format: in vivo; details: FIG. 2, in words
# Description: The abscissa represents blood-sampling time points, 0 min, 30 min, 60 min, 120 min after orally given with glucose; the ordinate represents the corresponding blood glucose level (mmol/L).
# (§1) 3 week-old male C57BL/6J mice were chosen as experiment animals, 15 of which were randomly selected to feed with a standard fodder, and the remains were allowed to feed with a high fat fodder, with each of the mice being marked by ear-cutting. The body weights and fodder intake of the mice were weighed every week. […] After the administration of the inventive compounds for four weeks, the effects of the medicaments on the levels of blood lipid and blood glucose, body weight, and fodder intake in the animals were observed, while a glucose tolerance test was performed to investigate the effects of the medicaments on the glucose tolerance in the animals.
# [3] = test system: Macaca rhesus model of hyperlipidemia; assay: Macaca rhesus model of hyperlipidemia, hematological indicators and ELISA; format: in vivo; details: three months of administration
# Text: Afterwards, efficacy of the medicament of the A-3 was confirmed in the Macaca rhesus model of hyperlipidemia. After three months of administration, blood samples were taken from the femoral vein for the determination of hematological indicators, and the determination of the insulin, apolipoprotein A-1 (apoA-1) and apolipoprotein B-100 (apoB-100) by ELISA.
# [4] = test system: high fat fodder obese C57BL/6J mice; assay: High fat fodder obese mice: levels of blood lipid and blood glucose; format: in vivo; parameters: HDL / GLU / TC / TG: unit not given here; details: for GLU / HDL / TC / TG: mean ± s, n 5; for levels of TG and GLU in the sera from the model animals: in words
# Text: as §1, with “[…],” for “After the administration of the inventive compounds for four weeks,”
# [5] = test system: high fat fodder obese C57BL/6J mice; assay: High fat fodder obese mice: body weight and food intake; format: in vivo; details: for effect on the food intake of the animals / body weight of the animals: in words; for body weight of the animals: Table 4 and FIG. 1
# Text: as §1
# PPARδ = target: T1, PPARδ (Homo sapiens, UniProt Q03181); assay: In vitro screening of nuclear receptor agonist: luciferase reporter gene assay in HepG2 cells; format: cell-based; details: RXR/PPARδ luciferase reporter gene, 24 h treatment
# T1 construct: expressed in transfected cells; host or cells: HepG2 (human hepatocarcinoma, ATCC)
# T1 sequence (Q03181 1-441): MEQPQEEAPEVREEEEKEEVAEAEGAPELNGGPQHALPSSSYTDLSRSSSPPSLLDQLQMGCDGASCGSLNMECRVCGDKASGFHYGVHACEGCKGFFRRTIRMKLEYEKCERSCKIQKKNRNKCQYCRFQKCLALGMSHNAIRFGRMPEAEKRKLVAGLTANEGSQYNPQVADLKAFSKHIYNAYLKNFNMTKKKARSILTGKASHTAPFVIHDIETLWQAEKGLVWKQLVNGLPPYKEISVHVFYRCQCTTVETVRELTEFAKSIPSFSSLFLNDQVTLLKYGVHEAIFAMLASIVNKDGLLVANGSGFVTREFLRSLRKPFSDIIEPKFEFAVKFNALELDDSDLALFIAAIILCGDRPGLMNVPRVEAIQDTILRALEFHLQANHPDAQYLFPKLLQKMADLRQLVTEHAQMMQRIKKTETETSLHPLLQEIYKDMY
# T1 sequence (P19793 1-462 partner): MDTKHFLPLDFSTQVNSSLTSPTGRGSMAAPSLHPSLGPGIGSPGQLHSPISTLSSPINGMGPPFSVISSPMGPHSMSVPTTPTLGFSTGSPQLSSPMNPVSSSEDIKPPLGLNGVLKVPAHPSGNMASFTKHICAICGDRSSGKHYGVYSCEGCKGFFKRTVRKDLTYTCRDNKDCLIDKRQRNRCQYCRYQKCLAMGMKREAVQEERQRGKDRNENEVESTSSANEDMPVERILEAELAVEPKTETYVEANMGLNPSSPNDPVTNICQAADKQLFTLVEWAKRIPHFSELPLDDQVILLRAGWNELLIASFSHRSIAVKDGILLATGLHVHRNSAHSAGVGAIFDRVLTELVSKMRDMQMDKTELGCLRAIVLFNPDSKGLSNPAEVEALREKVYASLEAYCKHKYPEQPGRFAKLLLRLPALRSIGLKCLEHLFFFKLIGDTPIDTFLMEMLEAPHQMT
# Text: Using a reporter gene protocol, the screening model for screening a nuclear receptor agonist in a living cell is designed on a basis of the principal that an activated nuclear receptor can activate transcription of its downstream gene. A reporter gene plasmid is constructed, in which the DNA binding sequence for the nuclear receptor (NRE) is inserted upstream of the luciferase gene, so that the expression of the luciferase gene is placed under the control of the nuclear receptor. Then, the reporter gene plasmid and the nuclear receptor are simultaneously transferred into a cell, and the nuclear receptor is activated when the nuclear receptor agonist is present in the cell culture medium. Then the activated receptor is able to induce the expression of the luciferase gene, while the amount of the luciferase can be determined through its luminous substrate. In this way, the intensity of activation by the compound on the nuclear receptor could be known by observing the luminescence intensity.
# The specific operation is described as follows:
# The experiment reagents: the compounds to be tested (20 mM, in DMSO, stored at −80° C.).
# The hepatocarcinoma cell HepG2 (from ATCC, American Type Culture Collection) was cultured in DMEM medium supplemented with 10% heat-inactivated fetal bovine serum (FBS, Invitogen, Grand Island, N.Y., USA) in a T-75 culture bottle (Greiner, Germany) in a incubator at 37° C., the relative humidity of 100%, and 5% CO2. When the cell culture in the culture bottle reached 80-90% confluency, it was digested with 0.25% Trypsin (with EDTA) for 3 min and inoculated into a 96-well cell culture plate at an inoculating density of 2000 cells/100 μl/well.
# In the next day, when the cells in the 96-well culture plate grew up to 50-80% confluency, cell transfection was performed. The cell co-transfection system comprised the FuGene6 transfection agent (Roche Molecular Biochemicals, Indianapolis, Ind., U.S.A.) and 60 ng DNA (long of hRXR, 10 ng of pCMV βGal, 10 ng of the nuclear receptor expression plasmid RXR/PPARδ, 30 ng of GFP fluorescence reporter gene plasmid, respectively).
# The cell culture medium was discarded immediately at 24 hours post-transfection and replaced by 200 μl of a fresh DMEM medium containing the medicament to be tested (with 10% FBS treated by activated carbon).
# 24 h after treatment with the medicament, the cells were lysed with a lysis solution (Cell Culture Lysis buffer, Promega) and centrifuged, and the supernatant was collected. The supernatant was treated with a fluorescence detection kit (Promega) and counted by a fluorescence meter (Ascent Fluoroskan FL reader, Thermo Labsystems, Finland), and the relative intensity of the luciferase was determined. For assaying the β-galactosidase activity used in the experiment as the inner reference (the inner reference calibrating for the transfection efficiency), 50 μl of the supernatant was transferred into a fresh microplate and treated with the Promega kit and read at a wavelength of 405 nm from a microplate reader (Bio-tech Instruments Inc., Winooski, Vt., USA) (Sauerberg, P.; Olsen, G. S.; Jeppesen, L.; Mogensen, J. P. et al., J. Med. Chem., 2007, 50, 1495-1503).
# The median effective concentration (EC50) of a sample is a concentration at which the sample has 50% pharmacological effect. This value is one of the important parameters for evaluating pharmacological effects of a compound. In the present screening process, the EC50 of a sample was calculated according to the activation of the receptor by the sample at six different concentrations.
# [6] = vs hyperlipidemia model control group
# [7] = 2 weeks administration, 3.3 mg/kg
# [8] = 2 weeks administration, 10 mg/kg
# [9] = 4 weeks administration, 3.3 mg/kg
# [10] = 4 weeks administration, 10 mg/kg
compound,measurement,setting,value
"2-(3-methyl-4-(1-(3-(4-methyl-5-oxo-1-(4-trifluoromethyl-phenyl)-4,5-dihydrogen-1H-1,2,4-triazolyl))-benzyloxy)-phenylthio)-acetic acid [Compound A-3]",Heart,Tissue distribution,26%
same,Kidney,Tissue distribution,9%
same,Liver,Tissue distribution,36%
same,Lung,Tissue distribution,16%
same,Spleen,Tissue distribution,13%
same,bioavailability,[1],86%
same,glucose tolerance in the obese animals,[2],significantly improve the glucose tolerance
same,concentration of apoA-1,"[3]; ELISA, in words",significantly increased
same,concentration of apoB-100,"[3]; ELISA, in words",significantly decreased
same,insulin concentration,"[3]; ELISA, in words",significantly decreased
same,high density lipoprotein (HDLc) increased,[3]; [6],67%
same,low density lipoprotein (LDLc) decreased,[3]; [6],38%
same,serum total cholesterol (TC) decreased,[3]; [6],45%
same,GLU,[4]; [7],9.52 ± 1.71
same,HDL,[4]; [7],3.31 ± 0.21
same,TC,[4]; [7],3.25 ± 2.76
same,TG,[4]; [7],0.19 ± 0.12
same,GLU,[4]; [8],6.54 ± 1.04
same,HDL,[4]; [8],2.94 ± 1.42
same,TC,[4]; [8],5.12 ± 0.65
same,TG,[4]; [8],0.18 ± 0.02
same,GLU,[4]; [9],9.54 ± 0.71
same,HDL,[4]; [9],3.1 ± 0.59
same,TC,[4]; [9],5.11 ± 0.31
same,TG,[4]; [9],0.07 ± 0.01
same,GLU,[4]; [10],6.6 ± 1.15
same,HDL,[4]; [10],2.89 ± 0.28
same,TC,[4]; [10],4.75 ± 0.57
same,TG,[4]; [10],0.11 ± 0.07
same,levels of TG and GLU in the sera from the model animals,[4],significantly decrease
same,Food intake,"[5]; column 1, 3.3 mg/kg",5.22 g
same,Food intake,"[5]; column 1, 10 mg/kg",5.46 g
same,Food intake,"[5]; column 2, 3.3 mg/kg",5.04 g
same,Food intake,"[5]; column 2, 10 mg/kg",4.84 g
same,Food intake,"[5]; column 3, 3.3 mg/kg",6.06 g
same,Food intake,"[5]; column 3, 10 mg/kg",4.94 g
same,Food intake,"[5]; column 4, 3.3 mg/kg",5.1 g
same,Food intake,"[5]; column 4, 10 mg/kg",5.28 g
same,Food intake,"[5]; column 5, 3.3 mg/kg",6.275 g
same,Food intake,"[5]; column 5, 10 mg/kg",6.9 g
same,effect on the food intake of the animals,[5],no significant effect
same,body weight of the animals,[5],significantly decrease
"Cc1cc(SCC(=O)O)c(C)cc1OC(c1ccccc1)c1nn(-c2ccc(C(F)(F)F)cc2)c(=O)n1C (stereo not drawn) [Compound A-11, 2-(2,5-dimethyl-4-(1-(3-(4-methyl-5-oxo-1-(4-trifluoromethyl-phenyl)-4,5-dihydrogen-1H-1,2,4-triazolyl))-benzyloxy)-phenylthio)-acetic acid]",glucose tolerance in the obese animals,[2],significantly improve the glucose tolerance
same,EC50,PPARδ,< 1 nM
same,GLU,[4]; [7],8.85 ± 2.13
same,HDL,[4]; [7],3.25 ± 1.29
same,TG,[4]; [7],0.21 ± 0.08
same,GLU,[4]; [8],6.51 ± 1.61
same,HDL,[4]; [8],2.39 ± 1.36
same,TC,[4]; [8],4.51 ± 0.37
same,TG,[4]; [8],0.16 ± 0.06
same,GLU,[4]; [9],7.61 ± 0.5
same,HDL,[4]; [9],3.83 ± 0.1
same,TC,[4]; [9],5.84 ± 0.21
same,TG,[4]; [9],0.12 ± 0.05
same,GLU,[4]; [10],6.93 ± 0.3
same,HDL,[4]; [10],2.84 ± 1.09
same,TC,[4]; [10],5.28 ± 0.48
same,TG,[4]; [10],0.15 ± 0.05
same,levels of TG and GLU in the sera from the model animals,[4],significantly decrease
same,Food intake,"[5]; column 1, 3.3 mg/kg",6.0 g
same,Food intake,"[5]; column 1, 10 mg/kg",7.2 g
same,Food intake,"[5]; column 2, 3.3 mg/kg",5.0 g
same,Food intake,"[5]; column 2, 10 mg/kg",5.2 g
same,Food intake,"[5]; column 3, 3.3 mg/kg",5.8 g
same,Food intake,"[5]; column 3, 10 mg/kg",6.0 g
same,Food intake,"[5]; column 4, 3.3 mg/kg",6.2 g
same,Food intake,"[5]; column 4, 10 mg/kg",6.4 g
same,Food intake,"[5]; column 5, 3.3 mg/kg",6.9 g
same,Food intake,"[5]; column 5, 10 mg/kg",6.9 g
same,effect on the food intake of the animals,[5],no significant effect
same,body weight of the animals,[5],significantly decrease
